Values of other authors, collected in patent publication US9512402B2, “Compositions for the preparation of mature dendritic cells” (Helmholtz Zentrum Munchen Deutsches Forschungszentrum fur …, priority 2006, dated 2016).

Test system: mature DCs
Conditions: DCs matured only with IFNα; Frankenberger 2005

Substance: IFNα
- EGFP protein expression following RNA transfer: failed to express EGFP protein
